# Test results taken from US20240173432A1, “Compositions and Methods for Treatment of Myotonic Dystrophy Type 1 with CRISPR/SluCas9” (Vertex Pharmaceuticals Incorporated, priority 2021, published 2024).
# Legend:
# [1] = test system: CTG repeat in the 3′ UTR of human DMPK gene; assay: Dual-cut screening: CTG repeat excision efficiency by loss-of-signal ddPCR; format: cell-based; conditions: sgRNA pair, primary DM1 patient myoblasts; for Excision efficiency (by ddPCR): 3 μM DNA-PKi Compound 6 for 48 hours; for Excision efficiency by ddPCR (Vehicle): vehicle (DMSO)
# How it was run: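 Upstream and downstream SluCas9 RNPs (20 pmol protein, 60 pmol sgRNA each) mixed 1:1 and nucleofected into primary DM1 patient myoblasts, then treated 48 h with DMSO or 3 μM DNA-PKi Compound 6. Genomic DNA taken 72 h post-nucleofection; excision read as loss of target signal by ddPCR versus a DMPK exon 1 reference.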
# [2] = test system: CUG foci in primary DM1 patient myoblasts; assay: Dual-cut screening: FISH staining of CUG RNA foci; format: cell-based, human; conditions: sgRNA pair, primary DM1 patient myoblasts; for % of CUG foci free nuclei (DNA-PKi): 3 μM DNA-PKi Compound 6 for 48 hours; for % of CUG foci free nuclei (Vehicle): vehicle (DMSO)
# How it was run: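 SluCas9 RNPs (protein:sgRNA 1:3; 20 pmol SluCas9 + 60 pmol sgRNA per guide, paired 1:1) nucleofected into primary DM1 patient myoblasts, then DMSO or 3 μM DNA-PKi Compound 6 for 48 h. At 72 h post-nucleofection cells fixed, FISH-stained with Cy3-PNA(CAG)5 probe plus anti-MBNL1 and Hoechst; % CUG foci-free nuclei by high-content confocal imaging.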
Substance,Excision efficiency (by ddPCR) [1],Excision efficiency by ddPCR (Vehicle) [1],% of CUG foci free nuclei (DNA-PKi) [2] [%],% of CUG foci free nuclei (Vehicle) [2] [%]
"SluU64 + SluD73 (guide 1 GGGCTCGAAGGGTCCTTGTAGC; guide 2 CCAAAACGTGGATTGGGGTTGT; guide RNA; listed as DNA, chemistry not fully specified)",74.77,50.69,91.02,70.19
"SluU64 + SluD83 (guide 1 GGGCTCGAAGGGTCCTTGTAGC; guide 2 GTGGGGACAGACAATAAATACC; guide RNA; listed as DNA, chemistry not fully specified)",78.97,55.22,90.63,76.55
"SluU64 + SluD100 (guide 1 GGGCTCGAAGGGTCCTTGTAGC; guide 2 GTCCAGAGCTTTGGGCAGATGG; guide RNA; listed as DNA, chemistry not fully specified)",68.22,45.16,85.89,69.88
